Results on 29 molecules are retold here after US7205295B2, “Benzoxazin-3-ones and derivatives thereof as therapeutic agents” (Warner-Lambert Company LLC, priority 2002, dated 2007).

The target in series [1] is T1, PI3Kγ (p101/p110γ protein) (Homo sapiens, UniProt P48736).
T1 construct: HA; made in house; host or cells: Spodoptera frugiperda (Sf9) cells, baculovirus co-infection
Briefly: PI3Kγ In Vitro Kinase Assay. Format: biochemical. Conditions: purified recombinant p101/p110γ with G protein β1/γ2 subunits; 20 μM ATP, 25 μM PIP2; 20 minutes at room temperature. In a few lines: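 Sf9-expressed, purified human p101/p110γ (2.7 nM) was activated by Gβ1/γ2 (57.7 nM) and reacted with 20 μM ATP plus [γ-32P]ATP on PIP2 (25 μM)/PE (300 μM) micelles with 10 mM MgCl2 in HEPES buffer. Reactions ran 20 min at room temperature. Filter-captured radiolabeled PIP3 was counted by scintillation.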

T1 sequence (P48736 whole entry, species assumed): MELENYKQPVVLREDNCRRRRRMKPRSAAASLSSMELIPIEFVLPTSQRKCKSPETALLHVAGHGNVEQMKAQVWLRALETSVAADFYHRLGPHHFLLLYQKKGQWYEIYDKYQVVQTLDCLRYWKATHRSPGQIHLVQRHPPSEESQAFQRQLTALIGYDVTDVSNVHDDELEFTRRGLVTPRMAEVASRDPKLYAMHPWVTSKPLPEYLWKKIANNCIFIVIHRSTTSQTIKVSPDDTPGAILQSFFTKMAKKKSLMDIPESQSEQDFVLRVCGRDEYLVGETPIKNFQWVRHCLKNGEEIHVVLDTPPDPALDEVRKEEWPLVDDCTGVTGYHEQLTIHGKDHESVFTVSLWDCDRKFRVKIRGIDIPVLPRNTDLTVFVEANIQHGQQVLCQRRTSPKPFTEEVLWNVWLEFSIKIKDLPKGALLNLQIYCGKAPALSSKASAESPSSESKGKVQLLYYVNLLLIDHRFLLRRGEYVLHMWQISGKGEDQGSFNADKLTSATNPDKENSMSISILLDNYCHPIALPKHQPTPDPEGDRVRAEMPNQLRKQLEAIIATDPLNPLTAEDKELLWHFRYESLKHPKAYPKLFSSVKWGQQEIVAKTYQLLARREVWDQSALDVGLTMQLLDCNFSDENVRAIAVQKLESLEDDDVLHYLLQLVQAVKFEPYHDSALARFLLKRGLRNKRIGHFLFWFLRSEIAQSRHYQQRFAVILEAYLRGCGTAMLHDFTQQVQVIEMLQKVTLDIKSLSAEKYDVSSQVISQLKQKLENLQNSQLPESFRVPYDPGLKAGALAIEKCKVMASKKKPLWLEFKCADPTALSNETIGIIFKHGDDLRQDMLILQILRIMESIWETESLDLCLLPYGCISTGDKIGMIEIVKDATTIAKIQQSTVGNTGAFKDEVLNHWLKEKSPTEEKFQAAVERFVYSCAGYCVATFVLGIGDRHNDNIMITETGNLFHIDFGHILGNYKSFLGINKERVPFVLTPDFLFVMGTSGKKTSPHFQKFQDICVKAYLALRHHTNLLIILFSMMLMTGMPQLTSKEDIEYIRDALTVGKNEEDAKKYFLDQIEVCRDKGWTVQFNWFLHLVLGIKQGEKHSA
T1 sequence (Q8WYR1 whole entry partner, species assumed): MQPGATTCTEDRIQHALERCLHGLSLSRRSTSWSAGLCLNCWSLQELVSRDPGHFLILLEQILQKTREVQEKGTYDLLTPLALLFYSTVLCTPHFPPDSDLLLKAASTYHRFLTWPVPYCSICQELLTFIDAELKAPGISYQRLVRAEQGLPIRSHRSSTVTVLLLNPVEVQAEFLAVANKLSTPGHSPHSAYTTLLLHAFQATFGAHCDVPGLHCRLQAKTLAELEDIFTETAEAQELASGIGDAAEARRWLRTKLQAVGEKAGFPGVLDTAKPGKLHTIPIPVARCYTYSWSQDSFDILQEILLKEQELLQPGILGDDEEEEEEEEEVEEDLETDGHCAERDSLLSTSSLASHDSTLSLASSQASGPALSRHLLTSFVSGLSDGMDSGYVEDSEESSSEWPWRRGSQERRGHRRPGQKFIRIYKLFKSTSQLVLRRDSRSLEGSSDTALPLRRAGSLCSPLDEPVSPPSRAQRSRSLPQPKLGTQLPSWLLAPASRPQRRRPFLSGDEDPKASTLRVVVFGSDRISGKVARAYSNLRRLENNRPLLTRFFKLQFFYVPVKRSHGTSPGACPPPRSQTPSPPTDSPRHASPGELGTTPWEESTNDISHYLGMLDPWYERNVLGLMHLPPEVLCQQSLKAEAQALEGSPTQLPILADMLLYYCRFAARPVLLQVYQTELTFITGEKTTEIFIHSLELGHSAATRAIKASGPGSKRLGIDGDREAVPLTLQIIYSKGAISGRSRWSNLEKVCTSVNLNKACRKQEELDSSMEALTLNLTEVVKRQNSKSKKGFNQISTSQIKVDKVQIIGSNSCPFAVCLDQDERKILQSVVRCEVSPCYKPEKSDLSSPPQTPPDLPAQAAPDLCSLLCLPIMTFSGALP

Molecule `O=C1NC(=S)SC1=Cc1ccc2c(c1)N(OCc1ccc(Cl)c(Cl)c1)C(=O)CO2` [Example 88, 4-(3,4-Dichloro-benzyloxy)-6-(4-oxo-2-thioxo-thiazolidin-5-ylidenemethyl)-4H-benzo[1,4]oxazin-3-one] returned a melting point above 300 °C. Further, the IC50 in series [1] is 3 nM.
On the same counts, the results for `Cc1cc(C)cc(CON2C(=O)COc3ccc(C=C4SC(=S)NC4=O)cc32)c1` [Example 89, 4-(3,5-Dimethyl-benzyloxy)-6-(4-oxo-2-thioxo-thiazolidin-5-ylidenemethyl)-4H-benzo[1,4]oxazin-3-one] are above 300 °C and 4 nM.
On to `O=C1NC(=S)SC1=Cc1ccc2c(c1)N(OCc1ccccc1)C(=O)CO2` [Example 90, 4-Benzyloxy-6-(4-oxo-2-thioxo-thiazolidin-5-ylidenemethyl)-4H-benzo[1,4]oxazin-3-one], for which the melting point was above 300 °C. Besides, the half-inhibitory concentration (IC50) in series [1] was determined as 4 nM.
As to `Cc1cc(C=C2SC(=S)NC2=O)cc2c1OCC(=O)N2Cc1ccc(CN2CCCCC2)cc1` [Example 91, 8-Methyl-6-(4-oxo-2-thioxo-thiazolidin-5-ylidenemethyl)-4-(4-piperidin-1-ylmethyl-benzyl)-4H-benzo[1,4]oxazin-3-one], the melting point lay in the range of 277 to 278 °C. Moreover, the half-inhibitory concentration (IC50) in series [1] was determined as 8 nM.
`CCN(CC)Cc1ccc(CN2C(=O)COc3c(C)cc(C=C4SC(=S)NC4=O)cc32)cc1` [Example 92, 4-(4-Diethylaminomethyl-benzyl)-8-methyl-6-(4-oxo-2-thioxo-thiazolidin-5-ylidenemethyl)-4H-benzo[1,4]oxazin-3-one]: the melting point is 250 to 252 °C. For the same molecule, the IC50 in series [1] stood at 6 nM.
`CCN(CC)Cc1ccc(CN2C(=O)COc3ccc(C=C4SC(=O)NC4=O)cc32)cc1` [Example 93, 5-[4-(4-Diethylaminomethyl-benzyl)-3-oxo-3,4-dihydro-2H-benzo[1,4]oxazin-6-ylmethylene]-thiazolidine-2,4-dione] yielded a melting point of 244 to 246 °C. For the same molecule, the IC50 in series [1] came out at 16 nM.
Molecule `CC(C)Oc1cc(CN2C(=O)COc3ccc(C=C4SC(=S)NC4=O)cc32)cc(OC(C)C)c1` [Example 94, 4-(3,5-Diisopropoxy-benzyl)-6-(4-oxo-2-thioxo-thiazolidin-5-ylidenemethyl)-4H-benzo[1,4]oxazin-3-one] returned a melting point of 245 to 247 °C. Besides, the half-maximal inhibitory concentration (IC50) in series [1] came out at 29 nM.
On the same counts, the results for `COc1ccc(C(C)(C)C)cc1CN1C(=O)COc2ccc(C=C3SC(=S)NC3=O)cc21` [Example 95, 4-(5-tert-Butyl-2-methoxy-benzyl)-6-(4-oxo-2-thioxo-thiazolidin-5-ylidenemethyl)-4H-1,4-benzoxazin-3-one] are 255 to 257 °C and 225 nM.
In turn, `Cc1cc(C)c(C)c(CN2C(=O)COc3ccc(C=C4SC(=S)NC4=O)cc32)c1C` [Example 96, 6-(4-Oxo-2-thioxo-thiazolidin-5-ylidenemethyl)-4-(2,3,5,6-tetramethyl-benzyl)-4H-1,4-benzoxazin-3-one] registered a melting point of 277 to 280 °C. Besides, in series [1], the IC50 is 670 nM.
On the same counts, the results for `Cc1ccc(CN2C(=O)COc3ccc(C=C4SC(=S)NC4=O)cc32)cc1C` [Example 97, 4-(3,4-Dimethyl-benzyl)-6-(4-oxo-2-thioxo-thiazolidin-5-ylidenemethyl)-4H-1,4-benzoxazin-3-one] are above 300 °C and 3 nM.
Take `Cc1cccc(CN2C(=O)COc3ccc(C=C4SC(=S)NC4=O)cc32)c1C` [Example 98, 4-(2,3-Dimethyl-benzyl)-6-(4-oxo-2-thioxo-thiazolidin-5-ylidenemethyl)-4H-benzo[1,4]oxazin-3-one]: the melting point was above 300 °C. In addition, in series [1], the IC50 stood at 5 nM.
The matching figures for `Cc1ccc(C)c(CN2C(=O)COc3ccc(C=C4SC(=S)NC4=O)cc32)c1` [Example 99, 4-(2,5-Dimethyl-benzyl)-6-(4-oxo-2-thioxo-thiazolidin-5-ylidenemethyl)-4H-1,4-benzoxazin-3-one]: above 300 °C and 18 nM.
For `O=C1NC(=S)SC1=Cc1ccc2c(c1)N(CCc1ccc(Br)cc1)C(=O)CO2` [Example 102, 4-[2-(4-Bromo-phenyl)-ethyl]-6-(4-oxo-2-thioxo-thiazolidin-5-ylidenmethyl)-4H-benzo[1,4]oxazin-3-one], the melting point lay in the range of 274 to 276 °C. Also, in series [1], the 50% inhibitory concentration (IC50) stood at 2 nM.
For `O=C1NC(=S)SC1=Cc1ccc2c(c1)N(CCc1ccc(Cl)c(Cl)c1)C(=O)CO2` [Example 103, 4-[2-(3,4-Dichloro-phenyl)-ethyl]-6-(4-oxo-2-thioxo-thiazolidin-5-ylidenmethyl)-4H-benzo[1,4]oxazin-3-one], the melting point lay in the range of 267 to 269 °C. Moreover, in series [1], the IC50 turned out to be 4 nM.
In the case of `O=C1NC(=S)SC1=Cc1ccc2c(c1)N(CCc1ccc(C(F)(F)F)cc1)C(=O)CO2` [Example 104, 6-(Oxo-2-thioxo-thiazolidin-5-ylidenmethyl)-4-[2-(4-trifluoromethyl-phenyl)-ethyl]-4H-benzo[1,4]oxazin-3-one], the melting point lay within 253 to 255 °C. Further, the concentration for half-maximal inhibition (IC50) in series [1] is 2 nM.
Regarding `O=C1NC(=S)SC1=Cc1ccc2c(c1)N(CCc1ccc(Cl)cc1Cl)C(=O)CO2` [Example 105, 4-[2-(2,4-Dichloro-phenyl)-ethyl]-6-(4-oxo-2-thioxo-thiazolidin-5-ylidenmethyl)-4H-benzo[1,4]oxazin-3-one], the melting point lay within 267 to 269 °C. The half-inhibitory concentration (IC50) in series [1] came out at 5 nM.
`O=C1NC(=S)SC1=Cc1ccc2c(c1)N(CCc1cccc(C(F)(F)F)c1)C(=O)CO2` [Example 106, 6-(Oxo-2-thioxo-thiazolidin-5-ylidenmethyl)-4-[2-(3-trifluoromethyl-phenyl)-ethyl]-4H-benzo[1,4]oxazin-3-one] showed a melting point of 241 to 243 °C. The 50% inhibitory concentration (IC50) in series [1] was 9 nM.
On to `O=C1NC(=S)SC1=Cc1cc(F)c2c(c1)N(Cc1cncc(Cl)c1)C(=O)CO2` [Example 330, 4-(5-Chloro-pyridin-3-ylmethyl)-8-fluoro-6-(4-oxo-2-thioxo-thiazolidin-5-ylidenemethyl)-4H-1,4-benzoxazin-3-one], for which, in series [1], the IC50 turned out to be 47 nM.
Turning to `CC(C)(O)c1cc(CN2C(=O)COc3c(F)cc(C=C4SC(=S)NC4=O)cc32)ccc1Cl` [Example 331, 4-[4-Chloro-3-(1-hydroxy-1-methyl-ethyl)-benzyl]-8-fluoro-6-(4-oxo-2-thioxo-thiazolidin-5-ylidenemethyl)-4H-1,4-benzoxazin-3-one; Compound with Ethane-1,2-diamine], in series [1], the IC50 is 9 nM.
As for `CC(C)(O)c1cc(CN2C(=O)COc3ccc(C=C4SC(=S)NC4=O)cc32)ccc1Cl` [Example 332, 4-[4-Chloro-3-(1-hydroxy-1-methyl-ethyl)-benzyl]-6-(4-oxo-2-thioxo-thiazolidin-5-ylidenemethyl)-4H-1,4-benzoxazin-3-one; compound with ethane-1,2-diamine], the concentration for half-maximal inhibition (IC50) in series [1] was 7 nM.
For the molecule `O=C1NC(=S)SC1=Cc1ccc2c(c1)N(Cc1cccs1)C(=O)CO2` [Example 333, 6-(4-Oxo-2-thioxo-thiazolidin-5-ylidenemethyl)-4-thiophen-2-ylmethyl-4H-1,4-benzoxazin-3-one], in series [1], the 50% inhibitory concentration (IC50) was found to be 7 nM.
Still for that read-out and setting: next, `Cc1cncc(CN2C(=O)COc3ccc(C=C4SC(=S)NC4=O)cc32)c1` [Example 334, 4-(5-Methyl-pyridin-3-ylmethyl)-6-(4-oxo-2-thioxo-thiazolidin-5-ylidenemethyl)-4H-1,4-benzoxazin-3-one]: 25 nM; `CC(C)n1cnc2cc(CN3C(=O)COc4ccc(C=C5SC(=S)NC5=O)cc43)ccc21` [Example 335, 4-(1-Isopropyl-1H-benzimidazol-5-ylmethyl)-6-(4-oxo-2-thioxo-thiazolidin-5-ylidenemethyl)-4H-1,4-benzoxazin-3-one]: 34 nM; `CC(C)n1cnc2ccc(CN3C(=O)COc4ccc(C=C5SC(=S)NC5=O)cc43)cc21` [Example 336, 4-(3-Isopropyl-3H-benzimidazol-5-ylmethyl)-6-(4-oxo-2-thioxo-thiazolidin-5-ylidenemethyl)-4H-1,4-benzoxazin-3-one]: 9 nM.
On to `O=C1NC(=S)SC1=Cc1ccc2c(c1)N(Cc1ccc3ncccc3c1)C(=O)CO2` [Example 337, 6-(4-Oxo-2-thioxo-thiazolidin-5-ylidenemethyl)-4-quinolin-6-ylmethyl-4H-1,4-benzoxazin-3-one], for which the IC50 in series [1] was found to be 8 nM.
As to `O=C1NC(=O)C(=Cc2ccc3c(c2)N(Cc2ccoc2)C(=O)CO3)S1` [Example 338, 5-(4-Furan-3-ylmethyl-3-oxo-3,4-dihydro-2H-1,4-benzoxazin-6-ylmethylene)-thiazolidine-2,4-dione], the IC50 in series [1] came to 12 nM.
With `Cc1cc(CN2C(=O)COc3ccc(C=C4SC(=S)NC4=O)cc32)n(C)n1` [Example 339, 4-(2,5-Dimethyl-2H-pyrazol-3-ylmethyl)-6-(4-oxo-2-thioxo-thiazolidin-5-ylidenemethyl)-4H-1,4-benzoxazin-3-one], the IC50 in series [1] worked out at 80 nM.
As to `O=C1NC(=S)SC1=Cc1ccc2c(c1)N(Cc1ccoc1)C(=O)CO2` [Example 340, 4-Furan-3-ylmethyl-6-(4-oxo-2-thioxo-thiazolidin-5-ylidenemethyl)-4H-1,4-benzoxazin-3-one], the IC50 in series [1] worked out at 13 nM.
As for `O=C1NC(=S)S/C1=C\c1cc(F)c2c(c1)N(Cc1ccc(Cl)c(Cl)c1)C(=O)CO2` [Example 341, 4-(3,4-Dichloro-benzyl)-8-fluoro-6-[4-oxo-2-thioxo-thiazolidin-(5Z)-ylidenemethyl]-4H-benzo[1,4]oxazin-3-one], the IC50 in series [1] was determined as 3 nM.

A word on the IC50: it is the midpoint of a concentration-inhibition curve. By melting point is commonly meant the temperature of the solid-liquid transition.
